According to patent publication US9695154B2, “Heteroaryl inhibitors of sumo activating enzyme” (MILLENNIUM PHARMACEUTICALS, INC., priority 2013, dated 2017):

Biological target: T1, recombinant human SAE enzyme (Homo sapiens, UniProt Q9UBT2)
T1 sequence (Q9UBT2 1-640): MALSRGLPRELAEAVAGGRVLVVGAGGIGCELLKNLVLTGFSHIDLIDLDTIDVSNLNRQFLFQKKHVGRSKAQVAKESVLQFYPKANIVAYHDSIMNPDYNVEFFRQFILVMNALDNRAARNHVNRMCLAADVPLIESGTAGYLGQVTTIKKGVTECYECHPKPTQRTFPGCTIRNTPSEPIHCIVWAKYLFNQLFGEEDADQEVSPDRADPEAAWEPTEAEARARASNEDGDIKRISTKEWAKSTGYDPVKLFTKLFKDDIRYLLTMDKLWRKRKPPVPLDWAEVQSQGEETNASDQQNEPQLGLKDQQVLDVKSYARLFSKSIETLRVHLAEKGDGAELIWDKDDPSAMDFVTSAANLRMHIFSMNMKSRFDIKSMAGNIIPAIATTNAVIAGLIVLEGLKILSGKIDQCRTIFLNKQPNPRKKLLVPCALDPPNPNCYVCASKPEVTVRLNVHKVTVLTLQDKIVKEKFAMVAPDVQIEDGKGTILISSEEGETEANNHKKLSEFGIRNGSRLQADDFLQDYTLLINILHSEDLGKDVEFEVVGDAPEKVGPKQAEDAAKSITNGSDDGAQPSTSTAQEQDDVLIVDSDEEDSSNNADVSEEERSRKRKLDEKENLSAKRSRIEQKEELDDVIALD
T1 sequence (Q9UBE0 1-346 partner): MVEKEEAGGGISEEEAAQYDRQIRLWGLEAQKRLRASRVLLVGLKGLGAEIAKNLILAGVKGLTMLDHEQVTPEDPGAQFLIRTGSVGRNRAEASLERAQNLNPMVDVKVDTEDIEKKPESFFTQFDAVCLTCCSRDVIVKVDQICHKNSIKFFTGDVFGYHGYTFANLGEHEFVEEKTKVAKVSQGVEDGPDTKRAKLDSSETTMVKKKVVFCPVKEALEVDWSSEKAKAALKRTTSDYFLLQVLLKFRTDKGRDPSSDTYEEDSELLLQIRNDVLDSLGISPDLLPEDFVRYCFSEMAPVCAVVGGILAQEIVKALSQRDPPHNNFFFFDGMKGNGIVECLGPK
Assay: SAE HTRF Enzyme Assay
Type: biochemical
Conditions: for IC50: class symbols A-C; for inhibition at 0.111 µM / Percent Inhibition: compound concentration 0.111 μM; for inhibition at 0.111 µM: read-out: Percent Inhibition; for Percent Inhibition: 0.111 µM
Outline: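 Sumoylation of Ubc9-GST by recombinant human SAE was followed by time-resolved FRET between Eu-cryptate anti-Flag and allophycocyanin anti-GST antibodies. The enzyme step used low ATP (0.5 μM) at pH 7.5 and ran 105 min at 24° C.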

SMILES | IC50 [nM] | inhibition at 0.111 µM [%] | Percent Inhibition [%]
NS(=O)(=O)NC[C@H]1C[C@@H](Nc2ncncc2C(=O)c2ccn(Cc3cccc(Cl)c3)n2)[C@H](O)[C@@H]1O [Compound I-136, N-({(1R,2R,3S,4R)-4-[(5-{[1-(3-Chlorobenzyl)-1H-pyrazol-3-yl]carbonyl}pyrimidin-4-yl)amino]-2,3-dihydroxycyclopentyl}methyl)sulfuric diamide] | 10 to 100 | 88 | 
NS(=O)(=O)OC[C@H]1C[C@@H](Nc2ncncc2C(=O)c2ccn(CC3CCCCC3)n2)C[C@@H]1O [Compound I-93, {(1R,2S,4R)-4-[(5-{[1-(cyclohexylmethyl)-1H-pyrazol-3-yl]carbonyl}pyrimidin-4-yl)amino]-2-hydroxycyclocarbonyl}methyl sulfamate] | < 10 | 90 | 
NS(=O)(=O)OC[C@H]1C[C@@H](Nc2ncncc2C(=O)c2ccn(Cc3ccc(Cl)cc3)n2)C[C@@H]1O [Compound I-47, {(1R,2S,4R)-4-[(5-{[1-{4-chlorobenzyl)-1H-pyrazol-3-yl]carbonyl}pyrimidin-4-yl)amino]-2-hydroxycyclopentyl}methyl sulfamate] | < 10 | 98 | 
NS(=O)(=O)OC[C@H]1C[C@@H](Nc2ncncc2C(=O)c2ccn(Cc3cnc(C(F)(F)F)s3)c2)C[C@@H]1O [Compound I-73, [(1R,2S,4R)-2-hydroxy-4-({5-[(1-{[2-(trifluoromethyl)-1,3-thiazol-5-yl]methyl}-1H-pyrrol-3-yl)carbonyl]pyrimidin-4-yl}amino)cyclopentyl]methyl sulfamate] | < 10 | 94 | 
CCC#CCn1ccc(C(=O)c2cncnc2N[C@@H]2C[C@H](COS(N)(=O)=O)[C@@H](O)C2)n1 [Compound I-234, {(1R,2S,4R)-2-hydroxy-4-[(5-{[1-(pent-2-yn-1-yl)-1H-pyrazol-3-yl]carbonyl}pyrimidin-4-yl)amino]cyclopentyl}methyl sulfamate] | 10 to 100 | 91 | 
NS(=O)(=O)OC[C@H]1C[C@@H](Nc2ncncc2C(=O)c2ccn(C3CCc4ccccc43)n2)[C@H](O)[C@@H]1O (single isomer, unassigned) [Compound I-353, {(1R,2R,3S,4R)-4-[(5-{[1-((1R)-2,3-dihydro-1H-inden-1-yl)-1H-pyrazol-3-yl]carbonyl}pyrimidin-4-yl)amino]-2,3-dihydroxycyclopentyl}methyl sulfamate or {(1R,2R,3S,4R)-4-[(5-{[1-((1S)-2,3-dihydro-1H-inden-1-yl)-1H-pyrazol-3-yl]carbonyl}pyrimidin-4-yl)amino]-2,3-dihydroxycyclopentyl}methyl sulfamate] | 10 to 100 |  | 90
NS(=O)(=O)OC[C@H]1C[C@@H](Nc2ccncc2C(=O)c2ccn(Cc3cccc(Cl)c3)n2)[C@H](O)[C@@H]1O [Compound I-81, {(1R,2R,3S,4R)-4-[(3-{[1-(3-chlorobenzyl)-1H-pyrazol-3-yl]carbonyl}pyridin-4-yl)amino]-2,3-dihydroxycyclopentyl}methyl sulfamate] | < 10 | 98 | 
NS(=O)(=O)OC[C@H]1C[C@@H](Nc2ncncc2C(=O)c2ccn(CC(=O)c3cccc(Cl)c3)n2)[C@H](O)[C@@H]1O [Compound I-283, [(1R,2R,3S,4R)-4-{[5-({1-[2-(3-chlorophenyl)-2-oxoethyl]-1H-pyrazol-3-yl}carbonyl)pyrimidin-4-yl]amino}-2,3-dihydroxyoyclopentyl]methyl sulfamate] | < 10 | 97 | 
NS(=O)(=O)OC[C@H]1C[C@@H](Nc2ccncc2C(=O)c2ccn(Cc3cccc(Cl)c3)n2)C[C@@H]1O [Compound I-52, {(1R,2S,4R)-4-[(3-{[1-(3-Chlorobenzyl)-1H-pyrazol-3-yl]carbonyl}pyridin-4-yl)amino]-2-hydroxycyclopentyl}methyl sulfamate] | < 10 | 99 | 
NS(=O)(=O)OC[C@H]1C[C@@H](Nc2ncncc2C(=O)c2cc(Cl)n(Cc3cccc(C(F)(F)F)c3)c2)[C@@H](F)[C@@H]1O [Compound I-184, [(1R,2R,3R,4R)-4-{[5-({5-chloro-1-[3-(trifluoromethyl)benzyl]-1H-pyrrol-3-yl}carbonyl)pyrimidin-4-yl]amino}-3-fluoro-2-hydroxycyclopentyl]methyl sulfamate] | < 10 | 97 | 
NS(=O)(=O)OC[C@H]1C[C@@H](Nc2ncncc2C(=O)c2ccn(Cc3ccccc3)n2)[C@H](F)[C@@H]1O [Compound I-227, [(1R,2R,3S,4R)-4-({5-[(1-benzyl-1H-pyrazol-3-yl)carbonyl]pyrimidin-4-yl}amino)-3-fluoro-2-hydroxycyclopentyl]methyl sulfamate] | < 10 | 97 | 
NS(=O)(=O)OC[C@H]1C[C@@H](Nc2ncncc2C(=O)c2ccn(Cc3ccc(F)o3)c2)[C@@H](F)[C@@H]1O [Compound I-231, [(1R,2R,3R,4R)-3-fluoro-4-{[5-({1-[(5-fluoro-2-furyl)methyl]-1H-pyrrol-3-yl}carbonyl)pyrimidin-4-yl]amino}-2-hydroxycyclopentyl]methyl sulfamate] | < 10 | 99 | 
NS(=O)(=O)OC[C@H]1C[C@@H](Nc2ncncc2C(=O)c2ccn(Cc3cc(F)cc(C(F)(F)F)c3)n2)[C@H](O)[C@@H]1O [Compound I-258, [(1R,2R,3S,4R)-4-{[5-({1-[3-fluoro-5-(trifluoromethyl)benzyl]-1H-pyrazol-3-yl}carbonyl)pyrimidin-4-yl]amino}-2,3-dihydroxycyclopentyl]methyl sulfamate] | < 10 | 97 | 
NS(=O)(=O)OC[C@H]1C[C@@H](Nc2ncncc2C(=O)c2ccn(Cc3cccc(F)c3F)n2)[C@H](O)[C@@H]1O [Compound I-327, {(1R,2R,3S,4R)-4-[(5-{[1-(2,3-difluorobenzyl)-1H-pyrazol-3-yl]carbonyl}pyrimidin-4-yl)amino]-2,3-dihydroxycyclopentyl}methyl sulfamate] | < 10 | 99 | 
NS(=O)(=O)OC[C@H]1C[C@@H](Nc2ncncc2C(=O)c2ccn(Cc3cccc(OC(F)(F)F)c3)n2)C[C@@H]1O [Compound I-20, [(1R,2S,4R)-2-hydroxy-4-{[5-({1-[3-(trifluoromethoxy)benzyl]-1H-pyrazol-3-yl}carbonyl)pyrimidin-4-yl]amino}cyclopentyl]methyl sulfamate] | < 10 | 96 | 
NS(=O)(=O)OC[C@H]1C[C@@H](Nc2ncncc2C(=O)c2ccn(CC#CCC3CCCC3)n2)C[C@@H]1O [Compound I-59, {(1R,2S,4R)-4-[(5-{[1-(4-cyclopentylbut-2-yn-1-yl)-1H-pyrazol-3-yl]carbonyl}pyrimidin-4-yl)amino]-2-hydroxycyclopentyl}methyl sulfamate] | 10 to 100 | 70 | 
CC#CCn1ccc(C(=O)c2cncnc2N[C@@H]2C[C@H](COS(N)(=O)=O)[C@@H](O)C2)c1 [Compound I-340, {(1R,2S,4R)-4-[(5-{[1-(but-2-yn-1-yl)-1H-pyrrol-3-yl]carbonyl}pyrimidin-4-yl)amino]-2-hydroxycyclopentyl}methyl sulfamate] | < 10 | 94 | 
NS(=O)(=O)OC[C@H]1C[C@@H](Nc2ncncc2C(=O)c2ccn(Cc3cncc(Br)c3)n2)C[C@@H]1O [Compound I-29, [(1R,2S,4R)-4-{[5-({1-[(5-bromopridin-3-yl)methyl]-1H-pyrazol-3-yl}carbonyl)pyrimidin-4-yl]amino}-2-hydroxycyclopentyl]methyl sulfamate] | 10 to 100 | 94 | 
NS(=O)(=O)OC[C@H]1C[C@@H](Nc2ncncc2C(=O)c2ccn(CC3CC3c3ccccc3)c2)[C@@H](F)[C@@H]1O (single isomer, unassigned) [Compound I-9, [(1R,2R,3R,4R)-3-fluoro-2-hydroxy-4-{[5-({1-[(1R,2R)-(2-phenylcyclopropyl)methyl]-1H-pyrrol-3-yl}carbonyl)pyrimidin-4-yl]amino}cyclopentyl]methyl sulfamate or [(1R,2R,3R,4R)-3-fluoro-2-hydroxy-4-{[5-({1-[(1S,2S)-(2-phenylcyclopropyl)methyl]-1H-pyrrol-3-yl}carbonyl)pyrimidin-4-yl]amino}cyclopentyl]methyl sulfamate] | 10 to 100 |  | 91
